The record followed here is PubChem BioAssay (NCI).

Holding throughout (test): growth of human tumour cells (NCI), 48 h
In assay [1] the test system is U251 CNS.
Assay [2] has as its system SK-MEL-28 melanoma.
Assay [3] relates to PC-3 prostate.
Assay [4] concerns HCC-2998 colon.
Assay [5] relates to NCI-H226 lung.
In assay [6] the test system is NCI-H460 lung.
Assay [7] concerns RPMI-8226 leukemia.
For assay [8], the system named is UACC-62 melanoma.
The subject of assay [9] is NCI/ADR-RES ovarian.
In assay [10] the test system is SF-295 CNS.

Several values for one entry are separate records, joined by “and”; a condition that tells them apart may be missing. Equal entries are not always repeated.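 Each compound was tested at five concentrations against cells in 96-well plates for 48 hours. GI50: concentration for 50% inhibition of growth. The concentration for full growth arrest is given as TGI.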 Some results are limits rather than exact numbers.

On to `COC(=O)Nc1nc2ccc(S(=O)c3ccccc3)cc2[nH]1` (configuration not stated), for which the GI50 in assay [1] was 4.45 µM; in assay [2], 3.78 µM; in assay [3] it was 6.75 µM; in [4], 10.5 µM; in assay [5], 4.06 µM; in assay [6], 4.17 µM. Also, the results for the GI50 in assay [7], in assay [8] and in assay [9] were 5.11 µM, 4.44 µM and 3.81 µM, respectively. For the same molecule, the TGI in [1], in [2], in assay [3], in [4], in [5] and in [6] was over 100 µM in each case. In addition, the TGI in [7], in assay [8] and in [9] was over 100 µM throughout.

As for `CN(C)c1ccc(-c2cc(-c3ccc(Nc4nc(Nc5ccc(Cl)cc5)nc(Nc5ccc(Cl)cc5)n4)cc3)no2)cc1`, the GI50 is 6.27 µM in assay [1]; 6.49 µM in [2]; 6.36 µM in assay [10]; 7.37 µM in [4]; 20.2 µM in assay [5]; 3.03 µM in assay [6]. The GI50 was 2.6 µM in assay [7], 17.1 µM in assay [8] and 5.38 µM in assay [9]. In addition, the TGI in assay [1] was 61.8 µM; in assay [2], 46.9 µM; in assay [10], 43.8 µM; in assay [4], 96.7 µM; in assay [5], over 100 µM; in assay [6] it was 12.3 µM. Further, the TGI was found to be 17 µM in assay [7], 62.2 µM in assay [8] and 88.6 µM in assay [9].

`c1cc2c(cc1NC1=NCCO1)CCC2`: the TGI in assay [2], in [3], in assay [10], in [4], in assay [7] and in assay [8] was over 10 µM each time.

For `CSCCCN(CCCSC)CCCSC`, the TGI in [1], in [2], in assay [3], in assay [10], in assay [4] and in [6] was over 100 µM in each case. The TGI in assay [8] and in [9] was over 100 µM in each case.

For `COC(=O)[C@@H](C)C[C@H](Cc1ccc(F)cc1)NC(=O)c1csc([C@@H](C[C@H](C(C)C)N(C)C(=O)[C@@H](NC(=O)[C@H]2CCCCN2C)C(C)C)OC(C)=O)n1`, the GI50 was 0.00151 µM and 0.00914 µM in assay [1]; over 16.7 µM in assay [2]; 0.00196 µM and 0.00756 µM in assay [3]; 0.000678 µM and 0.0063 µM in assay [6]; 0.00108 µM and 0.00682 µM in assay [7]. In addition, the TGI in [1], in [2], in assay [3], in assay [10], in assay [4] and in [6] was over 16.7 µM in each case. Also, the TGI in assay [7], in assay [8] and in assay [9] was over 16.7 µM in each case.

For the molecule `COc1ccc(C2=CSc3cc(Cl)c(C)cc3S(=O)(=O)N2C(C)=O)cc1`, the GI50 in assay [1] was 21.2 µM; in assay [2], 56 µM; in assay [3] it was 21.8 µM; in [4] it was 27.1 µM; in [5], 15.2 µM; in assay [6] it was 29 µM. For the same molecule, the GI50 in [7] was 26 µM; in assay [8] it was 13.1 µM; in [9], 26.8 µM. In addition, the TGI in assay [1] is 55.8 µM; in assay [2], over 100 µM; in [3] it was 82.1 µM; in assay [4], 69.5 µM; in [5], 60 µM; in assay [6] it was 99.5 µM. Besides, the results for the TGI in assay [7], in assay [8] and in assay [9] were 94 µM, 48 µM and 66.7 µM, respectively.

Consider `CC1=C(C#N)C23C(=O)c4ccccc4C(O)=C2C(=O)C=CC3(O)N1Cc1ccccc1` (configuration not stated), for which the GI50 is 42 µM in assay [1]; 57.1 µM in assay [2]; 47 µM in [3]; 17.6 µM in [10]; over 100 µM in assay [4]; 30.3 µM in assay [6]. Besides, the GI50 in [7] was 34 µM; in assay [8], 47.4 µM; in assay [9] it was 2.84 µM. Moreover, the TGI in assay [1], in assay [2], in assay [3], in [10], in assay [4] and in assay [6] was over 100 µM in each case. The TGI was over 100 µM in assay [7], over 100 µM in assay [8] and 30.6 µM in assay [9].

As to `COc1cc2nc(-c3ccc(C(F)(F)F)cc3)cc(OCCCN3CCC(O)CC3)c2cc1OC`, the GI50 in [1] was 2.12 µM; in assay [2] it was 2.38 µM; in [3] it was 3.66 µM; in assay [10], 1.61 µM; in assay [4], 4.07 µM; in assay [5], 1.59 µM. Moreover, the GI50 was 0.835 µM in [6], 2.61 µM in assay [8] and 0.847 µM in [9]. Further, the TGI was determined as 20.6 µM in assay [1]; 11.5 µM in assay [2]; 19.5 µM in assay [3]; 3.83 µM in assay [10]; 19.9 µM in assay [4]; 5.37 µM in assay [5]. Also, the TGI in assay [6] worked out at 16 µM; in assay [8], 7.28 µM; in assay [9], 22.7 µM.

For `COC(=O)[C@@]12C3=NO[C@]1(C(=O)OC)C(O[Si](C)(C)C(C)(C)C)[C@H]1OC(C)(C)O[C@H]1[C@@H]2C(OCc1ccccc1)CC3` (some centres not stated), the TGI in assay [1] was over 100 µM; in assay [2] it was over 100 µM; in assay [10], over 100 µM; in assay [4] it was over 100 µM; in assay [5] it was over 100 µM; in assay [6], 23.7 µM. Further, the TGI in assay [7] and in [8] was over 100 µM in each case.

Turning to `COc1ccc(/C=C\c2cc(OC)c3c(c2)OCO3)c(O)c1O`, the TGI in [1] is 19.3 µM; in [2], 24.1 µM; in assay [10], 36.8 µM; in assay [4], over 58 µM; in [5] it was 45.9 µM; in assay [6], 22.2 µM. For the same molecule, the TGI was determined as 18.2 µM in [7] and 14 µM in assay [8].

For `COc1ccc(NC(=O)c2cc(OC)cc(OC)c2)cc1`, the TGI in assay [1] is over 61.3 µM; in assay [2] it was over 100 µM; in [10], over 64.5 µM; in assay [4] it was over 100 µM; in assay [5], over 100 µM; in [6], over 100 µM. Also, the TGI in [7] and in assay [8] was over 100 µM throughout.

For `O=C1C2=C(SCCS2)C(=O)c2ccccc21`, the TGI is 3.02 µM in assay [1]; 3.26 µM in assay [2]; 3.14 µM in assay [10]; 3.11 µM in assay [4]; 3.57 µM in assay [5]; 3.38 µM in assay [6]. In addition, the values for the TGI in assay [7] and in assay [8] were 5.35 µM and 3.04 µM, respectively.

`Clc1cccc(Cc2cn3cc(-c4ccccc4)nc3s2)c1Cl`: the GI50 in assay [1] is 25.5 µM; in assay [2] it was 54.4 µM; in [3] it was 53.7 µM; in assay [4], 59.5 µM; in [5], 27.3 µM; in assay [6] it was over 100 µM. In addition, the GI50 was over 100 µM in assay [7], 1.83 µM in [8] and 76.4 µM in assay [9]. The TGI in [1], in assay [2], in [3], in assay [4], in assay [5] and in assay [6] was over 100 µM each time. Also, the TGI in [7], in assay [8] and in [9] was over 100 µM throughout.

Turning to `CCN(CC)CC(C(=O)Nc1c(C)cccc1C)/C(C)=N\NC(=O)C[N+](C)(C)C` (configuration not stated), the TGI in assay [1], in assay [2], in [10], in assay [4], in assay [5] and in assay [6] was over 100 µM each time. The TGI in assay [7] and in assay [8] was over 100 µM each time.

In the case of `CCNC1C2(CCCCC2)NC(=O)C12CCCCC2` (configuration not stated), the TGI in [1], in assay [2], in assay [10], in assay [4], in assay [5] and in assay [6] was over 100 µM each time. Besides, the TGI in assay [7] and in assay [8] was over 100 µM throughout.

`NS(=O)(=O)c1ccccc1C(=O)N/N=C(\c1nc2ccc([N+](=O)[O-])cc2[nH]c1=O)C(O)c1ccc([N+](=O)[O-])cc1` (configuration not stated): the TGI in assay [1], in [2], in [10], in assay [4], in assay [5] and in assay [6] was over 100 µM in each case. Besides, the TGI in assay [7] and in assay [8] was over 100 µM throughout.
